In article PMC12386283, “Elucidating the Complex Structural and Molecular Mechanisms Driving P-Glycoprotein-Mediated Transport of Cardiac Glycosides” (International Journal of Molecular Sciences, 2025):
“And” between values parts separate entries of the source, which are not always exact repeats. Equal values may be shown once. Read-outs that look alike come from different tables or passages of the source.

Assays:
[1] = biological target: T1, wild-type mouse Pgp (MDR3) (Mus musculus, UniProt P21447)
Text: The STDD NMR technique is a robust method used to characterize the interaction between a drug and receptor protein [36, 86]. This technique utilizes a saturated low-strength radio frequency (RF) to selectively excite the receptor protein. […] Due to the localization of Pgp, most of its substrates are lipophilic, resulting in a probable non-specific interaction between its substrates and liposomes in the observed STD NMR spectrum. Therefore, STD NMR of liposomes in the presence of drugs was performed. The resulting spectrum was subtracted from the ^1H STD NMR spectrum obtained from the drug in the presence of proteoliposome (Pgp reconstituted into liposome) to achieve a saturation transfer double-difference (STDD) NMR spectrum, which nullified the STD observations of the drugs in the presence of liposomes.
This technique was performed as previously described. […] The NMR tubes with the sample were centrifuged at 3000× g for 5 min. To suppress the background signals caused by water, a tailored gradient pulse sequence known as water suppression by gradient-tailored excitation (WATERGATE) was also included. A train of 50 ms Gaussian-shaped selective pulses was used to selectively excite and saturate Pgp for two seconds, and a relaxation delay of five seconds was also used. The STD NMR spectra for both the control and the samples were obtained through phase cycling, where the Pgp irradiation resonance was alternated between 1.5 ppm and 42 ppm on and off resonance, respectively, for 512 scans, creating the ^1H NMR spectrum.
For this experiment, the NMR studies were performed on a Bruker Avance NEO 800 MHz NMR spectrometer with a 1.7 mm TCI H{CN} probe at 25 °C. The STD NMR data generated were analyzed using iNMR software (Nucleomatic, Molfetta, Italy), Igor Pro 6.2, and Mnova 14.2.0 (Mastrelab Research S.L., Santiago de Compostela, Spain).

[2] = biological target: T1, wild-type mouse Pgp (MDR3); experiment: biochemical
Method: Overexpression of wild-type mouse Pgp (MDR3) was achieved by using genetically engineered strains of Pichia pastoris with a 6X histidine tag. The cells were cultured in glycerol media, and methanol was used to induce the overexpression of Pgp at the Bioexpression and Fermentation Facility (BFF), University of Georgia, Athens, GA, USA. A repeated cycle of freezing using liquid nitrogen, blending, and thawing was used to lyse the Pgp-expressing P. pastoris cells. The protein was purified using affinity chromatography with nickel-nitrilotriacetic acid (Ni-NTA) resin (Thermo Fisher Scientific, Waltham, MA, USA). DDM was used to solubilize the protein, and the solution was concentrated using Amicon Ultra-15 100 kDa cut-off filters (EMD Millipore, Billerica, MA, USA). The concentration of purified protein was measured at 280 nm using a calculated extinction coefficient of 1.28 per mg mL^−1 on a Nanodrop (DeNovix, Wilmington, DE, USA). […] The purified DDM-solubilized Pgp was aliquoted and stored at −80 °C for future analysis.
Approximately 40 µL of DDM-solubilized Pgp was dialyzed for two hours against HEPES buffer (20 mM HEPES, 100 mM NaCl, 5 mM MgCl2, 2 mM DTT, pH 7.4) to remove any remnants of the detergent, DDM. The dialyzed protein was mixed with 4 mg mL^−1 of the extruded liposomes and incubated on ice for at least one hour to allow Pgp to integrate into the liposomes. To remove any additional detergent and further facilitate Pgp integration into the liposome, the solution was dialyzed for a second time for two hours in HEPES buffer to form proteoliposomes, and the concentration of Pgp reconstituted in liposomes was determined using the Bio-Rad DC Protein assay. Finally, the solution was aliquoted and stored at −80 °C for future use.
The intrinsic tryptophan residues in the protein can be selectively excited and emitted at 295 nm and 330 nm wavelengths, respectively. The binding of the drug to the protein can alter the spatial arrangement encountered by the tryptophan residue(s) and thereby regulate the fluorescence intensity of the protein [52]. […] Proteoliposomes diluted to 1 µM in Chifflet buffer containing 2 mM DTT were titrated against varying concentrations of drugs. The intrinsic protein fluorescence was measured at 330 nm upon excitation at 295 nm using an Olis DM 45 spectrophotometer (Olis Corporation, Bogart, GA, USA). To nullify the effect of Rayleigh bands on the observed spectra, a 10 nm band-pass filter was inserted on the excitation and emission paths of the spectrophotometer. The drug-induced quenching of intrinsic Pgp fluorescence was corrected (Fcorrected) for factors such as dilution, background fluorescence, and inner filter effects using the equation mentioned below (Equation (2)).(2) Fcorrected=F−B10^εexbex+εembemQ/2 where Fcorrected = Drug-induced quenching of intrinsic Pgp fluorescence; F = Emitted intrinsic Pgp fluorescence at 330 nm; [Q] = Concentration of drug; εex and εem = Excitation and emission extinction coefficients, respectively; bex and bem = Path lengths of excitation (0.4 mm) and emission (10 mm) wavelengths, respectively; and B = Background fluorescence measured from drug and solvent.
The resulting quenching curves were fit using a modified Stern-Volmer equation (Equation (3)), as follows:(3) Fcorrected=FOcorrected/1+KsvQ+Funquenched where Fcorrected = The corrected fluorescence; F0(corrected) = Fluorescence recorded in the absence of drug; [Q] = Concentration of drug; Ksv = Stern–Volmer constant; and F(unquenched) = unquenched fluorescence.

[3] = test system: Pgp; conditions: CLEFF9 cells, cited from earlier work
[4] = 1 µM proteoliposome, excitation 295 nm, emission 330 nm, absence of ATP and co-factors

T1 sequence (P21447 whole entry): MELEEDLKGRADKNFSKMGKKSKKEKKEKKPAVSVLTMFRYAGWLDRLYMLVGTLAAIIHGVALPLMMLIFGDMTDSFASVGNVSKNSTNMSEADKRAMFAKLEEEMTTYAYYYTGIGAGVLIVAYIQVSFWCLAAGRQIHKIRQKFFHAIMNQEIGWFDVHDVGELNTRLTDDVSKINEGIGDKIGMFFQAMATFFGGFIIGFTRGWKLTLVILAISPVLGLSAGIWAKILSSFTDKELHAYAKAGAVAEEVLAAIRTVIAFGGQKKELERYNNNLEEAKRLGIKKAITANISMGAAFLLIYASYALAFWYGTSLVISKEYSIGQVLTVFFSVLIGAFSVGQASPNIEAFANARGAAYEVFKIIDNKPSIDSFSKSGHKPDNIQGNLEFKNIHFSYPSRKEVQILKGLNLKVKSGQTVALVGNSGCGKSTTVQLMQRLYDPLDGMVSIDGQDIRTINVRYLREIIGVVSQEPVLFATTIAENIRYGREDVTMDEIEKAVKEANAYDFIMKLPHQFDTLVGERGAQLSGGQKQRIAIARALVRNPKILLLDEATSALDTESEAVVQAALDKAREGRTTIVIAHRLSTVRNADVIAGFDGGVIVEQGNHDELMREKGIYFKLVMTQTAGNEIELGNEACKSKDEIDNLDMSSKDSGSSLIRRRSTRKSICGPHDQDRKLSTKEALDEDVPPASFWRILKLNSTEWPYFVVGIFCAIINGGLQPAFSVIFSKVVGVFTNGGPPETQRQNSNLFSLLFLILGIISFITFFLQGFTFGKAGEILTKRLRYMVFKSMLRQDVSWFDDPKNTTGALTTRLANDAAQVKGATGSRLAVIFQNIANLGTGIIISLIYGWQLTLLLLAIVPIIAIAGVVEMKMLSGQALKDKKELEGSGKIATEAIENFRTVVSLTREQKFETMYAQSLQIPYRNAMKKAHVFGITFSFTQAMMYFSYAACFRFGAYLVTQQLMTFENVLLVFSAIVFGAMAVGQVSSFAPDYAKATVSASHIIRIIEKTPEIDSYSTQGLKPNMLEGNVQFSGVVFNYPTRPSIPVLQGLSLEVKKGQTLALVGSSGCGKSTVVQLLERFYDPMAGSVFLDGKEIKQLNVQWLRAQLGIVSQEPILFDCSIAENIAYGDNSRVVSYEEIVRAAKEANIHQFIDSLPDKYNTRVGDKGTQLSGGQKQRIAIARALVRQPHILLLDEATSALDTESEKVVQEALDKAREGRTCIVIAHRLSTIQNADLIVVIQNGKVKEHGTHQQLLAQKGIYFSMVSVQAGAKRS

Structure (SMILES): C[C@]12CC[C@H](O)C[C@H]1CC[C@@H]1[C@@H]2CC[C@]2(C)[C@@H](C3=CC(=O)OC3)CC[C@]12O [Digitoxigenin, (3β,5β)-3,14-Dihydroxy-card-20(22)-enolide]
- Interaction (Region/Group) Pgp (STDD-NMR Data) ([1]; 1 mM drug, 1 µM Pgp, 25 °C): Protons on C1, C12, C18, C19 of steroid; C22 of lactone
- Kd [2]: 56.7 ± 15.6 µM
- Stern-Volmer constant (Ksv) from CG-induced tryptophan fluorescence quenching in Pgp [2, 4]: 0.01765 ± 0.0048 µM⁻¹

Structure (SMILES): C[C@]12CC[C@H](O)C[C@H]1CC[C@@H]1[C@@H]2C[C@@H](O)[C@]2(C)[C@@H](C3=CC(=O)OC3)CC[C@]12O [Digoxigenin, 3β,12β,14-Trihydroxy-5β,20(22)-cardenolide]
- Interaction (Region/Group) Pgp (STDD-NMR Data) ([1]; 1 mM drug, 1 µM Pgp, 25 °C): Protons on C1, C3,C12, C17, C18, C19 of steroid; C21, C22 of lactone
- Decrease of transport rate on treatment with erythromycin [3]: about 43%
- Stern-Volmer constant (Ksv) from CG-induced tryptophan fluorescence quenching in Pgp [2, 4]: 0.09839 ± 0.0146 µM⁻¹

Structure (SMILES): C[C@H]1O[C@@H](O[C@H]2[C@@H](O)C[C@H](O[C@H]3[C@@H](O)C[C@H](O[C@H]4CC[C@@]5(C)[C@H](CC[C@@H]6[C@@H]5C[C@@H](O)[C@]5(C)[C@@H](C7=CC(=O)OC7)CC[C@]65O)C4)O[C@@H]3C)O[C@@H]2C)C[C@H](O)[C@@H]1O [Digoxin]
- Interaction (Region/Group) Pgp (STDD-NMR Data) ([1]; mouse, not told, 1 mM, pH 7.4): Protons on C3,C18, C19 of steroid; C22 of lactone; C3,C5,C6 of sugar
- Effect of erythromycin treatment on Pgp-mediated efflux rate ([3]; in words): did not affect
- Kd [2]: 6.85 ± 0.83 µM
- Stern-Volmer constant (Ksv) from CG-induced tryptophan fluorescence quenching in Pgp [2]: 0.146 ± 0.0117 and 0.146 ± 0.0117 µM^−1
